Source: US20230381192A1, “METHODS FOR CONTROLLING AND PREDICTING RECOVERY AFTER NMBA ADMINISTRATION” (Cornell University, priority 2020, published 2023)

Key:
[1] = preclinical studies; cited from earlier work
Rhesus monkeys = test: Spontaneous recovery from NMB (twitch 5% to 95% of baseline) after bolus or infusion in Rhesus monkeys under isoflurane; assay type: in vivo, Rhesus monkey; conditions: for 5%-95% Interval: mean ± SD
Protocol: Rhesus monkeys under isoflurane anesthesia were administered a bolus dose of either RP2000 or RP1000 at a dose equal to 1× to 10× the ED95 in Rhesus monkeys of the administered compound (ED95,Rp1000=0.040 mg/kg; ED95,RP2000=0.053 mg/kg). Twitch (0.15 Hz) and TOF (2 Hz×2 seconds) were recorded throughout the 6 -10 hours experiments. Time to spontaneous recovery after bolus administration, characterized by recovery of twitch from 5% to 95% of baseline was measured.
Separately, continuous infusions of 20-180 minutes duration were given (to separate subjects), and after discontinuation of infusion, time to spontaneous recovery of NMB, characterized by recovery of twitch from 5% to 95% of baseline was measured.

COc1ccc(C[C@@H]2c3cc(OC)c(OC)cc3CC[N@@+]2(C)CCCOC(=O)/C=C/C(=O)OCCC[N@+]2(C)CCc3cc(OC)c(OC)cc3[C@H]2Cc2ccc(OC)c(OC)c2)cc1OC.[Cl-].[Cl-] [RP1000]
time to 100% NMB after administration [1]: ≤ 90 s
ED95 in Rhesus monkeys (Rhesus monkeys; Rhesus monkeys, isoflurane anesthesia): 0.040 mg/kg
5%-95% Interval (Rhesus monkeys; after continuous infusion of 20-180 minutes): 13.1 ± 3.7 min
5%-95% Interval (Rhesus monkeys; bolus dose 0.05 mg/kg): 15.3 ± 7.5 min
5%-95% Interval (Rhesus monkeys; bolus dose 0.10 mg/kg): 14.3 ± 6.5 min
5%-95% Interval (Rhesus monkeys; bolus dose 0.20 mg/kg): 13.3 ± 4.4 min
5%-95% Interval (Rhesus monkeys; bolus dose 0.40 mg/kg): 15.5 ± 5.1 min
